Experimental data: US7977326B2, “Supportive treatment of liver disease” (priority 2004, dated 2011)
Read-outs that look alike come from different tables or passages of the source.

Tests used:
[1] = tested on: piglet hepatic microsomal membranes; test: Parallel studies using H2O2 as a free radical generator; type: biochemical
[2] = tested on: Hepatic liver microsomes; details: for Fluorescence Activity: 1 mM AAPH, n=6
Description: Hepatic liver microsomes were obtained from 4 healthy piglets as described previously. Microsomes were stored at −80° C. until required for study. Concentration of microsomes was 1 mg/ml. Diltiazem concentrations were 50 and 500 μM, Thiamine concentrations tested included 10, 50, and 100 μM. Free radical generator AAPH was 1 mM. The study detected hepatic lipid peroxidation products by analyzing the fluorescence activity of the dye DCFH by a plate reader as described in our previous report.
DCF-DA was treated with 2M NaOH and MeOH for 2 hours and after which time it was neutralized with HCl to yield the intracellular form of DCFH as described by the manufacturer. Hepatic microsomes were diluted to 1 mg/ml using Phosphate Buffered Saline (PBS). Microsomes were incubated with various concentrations of diltiazem, thiamine or in combination at 37° C. for 1 hour. Control microsomes were incubated with PBS (no drug treatment). Microsomal mixture was then incubated with 1 mM AAPH for 1 hour to initiate free radical induced lipid peroxidation for 1 hour at 37° C. Following incubation, the microsomal mixture was centrifuged at 2000 rpm using 5000 MWCO ultracentrifuge tubes and the procedure repeated twice with PBS to remove any AAPH and drug. Lipid peroxidized microsomes were incubated with 10 μM DCFH for 15 minutes and fluorescence activity recorded using a fluorescence plate reader.

[3] = tested on: microvascular blood flow within the liver; details: in vivo; cited from earlier work
[4] = tested on: piglet hepatic microsomal membranes; test: DCF activity in AAPH induced free radical release in microsomes (lipid peroxidation); type: biochemical; parameters: DCF activity in AAPH induced free radical release: unit not given here; details: for inhibition of membrane oxidation (reduction in DCF activity): 0-1000 μM, AAPH; for DCF activity in AAPH induced free radical release: one hour at 37° C. then one hour AAPH
Description: The protective effect of diltiazem on cell membranes was examined in piglet hepatic microsomal membranes obtained from the livers of 3-week-old female piglets. […] Following incubation the microsomal mixture was centrifuged at 2000 rpm to remove excess AAPH and diltiazem. The extent of reactive oxygen species mediated lipid peroxidation in the microsomal membranes was then measured employing the fluorescence market dichlorofluoresen (DCF, 10μ for 15 min). Image analysis.

[5] = tested on: patients with Hepatitis B; details: cited from earlier work

| Compound | protection against H2O2 as free radical generator [1] | Fluorescence Activity ([2]; Diltiazem 50 μM) | Fluorescence Activity ([2]; Diltiazem 500 μM) | effect on microvascular blood flow within the liver [3] | inhibition of membrane oxidation (reduction in DCF activity) [4] | DCF activity in AAPH induced free radical release ([4]; 5 μM) | DCF activity in AAPH induced free radical release ([4]; 50 μM) | DCF activity in AAPH induced free radical release ([4]; 250 μM) | DCF activity in AAPH induced free radical release ([4]; 500 μM) | DCF activity in AAPH induced free radical release ([4]; 1000 μM) | Fluorescence Activity ([2]; Thiamine 10 μM) | Fluorescence Activity ([2]; Thiamine 50 μM) | Fluorescence Activity ([2]; Thiamine 100 μM) | effect on fluorescence activity (free radical release), in words ([2]; thiamine added to microsomes) | effect on liver function [5] |
| --- | --- | --- | --- | --- | --- | --- | --- | --- | --- | --- | --- | --- | --- | --- | --- |
| COc1ccc([C@@H]2Sc3ccccc3N(CCN(C)C)C(=O)[C@@H]2OC(C)=O)cc1 (relative stereo) [Diltiazem, cis-(+)-3-(acetyloxy)-5-[2-(dimethylamino)ethyl]-2,3-dihydro-2-(4-methoxyphenyl)-1,5-benzothiazepin-4(5H)-one] | not protective | 36492 | 32271 | no effect | dose-dependent inhibition of membrane oxidation | 44501 | 38293 | 35148 | 31498 | 27258 |  |  |  |  |  |
| COc1ccc([C@H]2Sc3ccccc3N(CCN(C)C)C(=O)[C@H]2OC(C)=O)cc1 [L-diltiazem] |  |  |  |  | not | 52799 | 49949 | 51120 | 53182 | 49937 |  |  |  |  |  |
| Cc1ncc(C[n+]2csc(CCO)c2C)c(N)n1 [Thiamine, thiamine] |  |  |  |  |  |  |  |  |  |  | 31113 | 27265 | 23477 | reduced the fluorescence activity | improve liver function |
